Values of other authors as cited in patent US20240360061A1, “Synthetic Cannabinoid Compounds, Pharmaceutical Compositions, and Treatment Methods” (Miralogx LLC, priority 2022, published 2024).

Legend:
[1] = oral THC 15 mg; compared with salbutamol, isoprenaline
[2] = several clinical studies
[3] = 2.5 to 5 mg THC, three patients
[4] = Type-2 diabetes; cited from J. Cannabis Research (2020) 2:6

CCCCCc1cc(O)c2c(c1)OC(C)(C)[C@@H]1CCC(C)=C[C@@H]21 [THC, tetrahydrocannabinol]
anti-asthmatic (bronchodilator) effect [1]: approximately correspond to those obtained with therapeutic doses of common bronchodilator drugs
mood in reactive depression [2]: improvement of mood
effect on pruritus due to liver diseases [3]: effective

CCCc1cc(O)c2c(c1)OC(C)(C)[C@@H]1CCC(C)=C[C@@H]21 [THCV, Δ9-Tetrahydrocannabivarin]
Homeostasis Model Assessment (HOMA2) of pancreatic β-cell function [4]: improve
fasting plasma glucose [4]: significantly decrease
